# Measurements published in patent US20230312577A1, “DUAL KINASE-BROMODOMAIN INHIBITORS” (MONASH UNIVERSITY, priority 2020, published 2023).
# Columns and labels:
# Eμ-Myc lymphoma cells = assay: In vivo therapeutic assessment, Eμ-Myc lymphoma transplant; parameters: species or system mouse; conditions: 45 mg/kg IP, 5 days per week, 3 weeks
# Method: For transplantation of Eμ-Myc lymphomas in vivo, cohorts of 6-8 week old B6.SJL-PtprcPepc/BoyJ (B6.CD45.1) mice were inoculated via tail vein injection with 5×10^5 Eμ-Myc lymphoma cells (C57BL/6 (CD45.2)). Cpd 010 and vehicle controls (30% HPBCD) were prepared as above. Three days after lymphoma inoculation, intraperitoneal (IP) injection of compound 10 (45 mg/kg), or vehicle (30% HPBCD) was administered 5 days per week, for a total of 3-weeks of therapy. Detection of tumour cells on peripheral blood was carried out by flow cytometric analysis using the following antibodies; fixable Viability dye-AmCyan (Zom-bie Aqua™ Fixable Viability Kit, BioLegend), anti-mouse CD19-PE (ThermoFisher Scientific, #12-0193-82), anti-mouse CD45R (B220)-APC (ThermoFisher Scientific, #RA3-6B2), anti-mouse CD45.1-PerCP-Cy™5.5 (ThermoFisher Scientific, #A20), anti-mouse CD45.2-FITC (BioLegend, #104). Data were collected on a BD LSR-Fortessa X20 (BD Biosciences). The data were analysed using FlowJo Software, version 10.0.7 (Tree Star).
# [1] = system: MLL-AF9 cells (IBET-151-sensitive and IBET-151-resistant); assay: Apoptosis assay in BET-inhibitor-resistant cells (Annexin V/PI); format: cell-based, mouse; conditions: 72 h, Annexin V/PI
# Method: Mouse AML cells; MLL-AF9 (IBET-151-sensitive and IBET-151-resistant) (5×10^4) were treated with indicated compounds for 72 h. Apoptotic analysis was performed by flow cytometry using Annexin V/propidium iodide (PI) stains. Data were collected on a BD LSR-Fortessa X20 (BD Biosciences) and analysed using FlowJo Software, version 10.0.7 (Tree Star). IC50 were calculated using the GraphPad Prism Software Version 7.0c. Data are representative of biological triplicates.
# OPM2 cells [2] = assay: Synergy between PI3K and BET inhibitors, apoptosis assay (TMRE) and synergy score; format: cell-based, human
# Method: An apoptosis assay using TMRE stain by flow cytometry was performed in OPM2 cells with indicated compounds. […] Using Synergyfinder web application (https://synergyfinder.fimm.fi), synergy score was calculated. Zero Interaction Potency (ZIP) reference models was utilised.
# Vk*MYC myeloma cells = assay: In vivo therapeutic assessment, Vk*MYC multiple myeloma mouse model; conditions: once daily, 5 days a week, 3 weeks
# Method: For Vk*MYC multiple myeloma mouse models, wild type C57/B16 mice were irradi-ated with 2 fractions of 3.3Gy (Gammacell® 40 caesium source, Atomic Energy of Canada Ltd., Ontario, Canada) prior to transplantation of Vk*MYC myeloma cells (2.4×10^5). Mice were monitored for tumour progression by measuring M-proteins via serum protein electropho-resis (SPEP). Mice were treated with 3 weeks of Cpd 010 or vehicle once daily (5 days a week) for 3 weeks when their average SPEP has reached 7-10%. Serial measurement of SPEP was carried out during and post therapy. Overall survival was recorded.
# [3] = system: panel of human multiple myeloma cell lines; assay: Apoptosis assay (TMRE, flow cytometry); format: cell-based; conditions: 48 h
# Method: A panel of human multiple myeloma cell lines (3×10^5) was incubated in the presence of Cpd 010 or DMSO vehicle control with indicated concentrations for 48 h before flow cytometric analysis of viability using Tetramethylrhodamine ethylester (TMRE) stains. Further apoptotic assay using only OPM2 cells was carried out using Cpd 010 or DMSO with TMRE stains.
# BRD4 = BRD4 (Homo sapiens, UniProt O60885); assay: Chromatin immunoprecipitation and sequencing analysis in OPM2 cells; format: cell-based; parameters: endogenous in cells; host or cells: OPM2; conditions: 250 nM, 2 h
# Method: OPM2 cells (4×10^6) were treated with 250 nM of Cpd 010 or DMSO control for 2 h. Cells were cross-linked, and nuclei were lysed to achieve a mean DNA fragment size of 300-500 bp. Immunoprecipitation was performed using protein A/G magnetic beads for at least 12 h at 4° C. using the following antibodies: anti-BRD4 anti-H3K27Ac, anti-RNA polymerase II. Reverse crosslinking of DNA was performed, and DNA was purified using QIAquick PCR purification kit. The KAPA Hyper Prep Kit was used to generate libraries as per the manufacturer's instruction, which sequenced on the NextSeq (Illumina; 75 bp SE).
# OPM2 cells [4] = assay: Cell proliferation assay (ViaLight, cellular ATP); format: cell-based; conditions: Homo sapiens, OPM-2, 120 h, 5 days, 5 μM to 1 nM
# Summary of the method: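 1×10^3 cells per well exposed to compounds at final 5 μM to 1 nM for 5 days. Viability read as cellular ATP by ViaLight luminescence, technical triplicates. GI50 computed from the dose–response.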
# [5] = system: PD-L1 and pAKT (PI3K substrate); assay: In vivo target engagement from a single dose (PD-L1, pAKT), Eμ-Myc lymphoma; parameters: species or system mouse; conditions: single dose 35-45 mg/kg
# Method: B6.SJL-PtprcPepc/BoyJ (B6.CD45.1) mice were inoculated via tail vein injection with 5×10^5 Eμ-Myc lymphoma cells and left untreated for 12-14 days. A single injection of Cpd 010 at 35-45 mg/kg, or vehicle control (30% HPBCD) was administered. Half of the mice (n=6) were harvested 6 h post injection while the other half (n=6) were harvested 16 h later. Assessment of tumour burden was carried out on single cell suspension of harvested lymph nodes, spleen and blood by flow cytometry using antibodies as above. PD-L1 MFI was assessed by flow cytometry in harvested LNs using anti-mouse PD-L1-PE (ThermoFisher Scientific, clone MIH5) or isotype control antibodies (Mouse IgG2b PE, #559529). Harvested LNs were also washed in PBS and lysates were collected using Laemmli Buffer (AlfaAeser #J61337). They were processed as per our Western Blot protocol (see above) before they were probed for primary pAKT antibodies. Spleen size and weights were also measured between the treatment groups.
# In terms of target engagement, PD-L1 expression in the tumour cells were measured in the harvested LN and spleen. As expression of the Myc transgene in Eμ-Myc is not BET-de pendent, MYC cannot be measured as a read-out of BET inhibition, therefore PD-L1 was used as an indicator for BET inhibition. […] Similarly, pAKT (PI3K substrate) was suppressed by Cpd 010 in the lysates made from harvested LN.
smiles,measurement,setting,value
"CC(=O)N1c2ccc(-c3ccc(CNC(=O)c4cn5cc(-c6cnc(N)nc6)nc(N6CCOCC6)c5n4)cc3)cc2CC[C@@H]1C [Cpd 010, (S)-N-(4-(1-acetyl-2-methyl-1,2,3,4-tetrahydroquinolin-6-yl)benzyl)-6-(2-aminopyrimidin-5-yl)-8-morpholinoimidazo[1,2-a]pyrazine-2-carboxamide]",curative response,Eμ-Myc lymphoma cells,90%
same,survival,Eμ-Myc lymphoma cells; p<0.0001,statistically significant survival benefit
same,apoptosis in I-BET151-resistant MLL-AF9 cells,[1],"capable of inducing apoptosis in I-BET151-resistant MLL-AF9 cells, comparable to the I-BETE151-sensitive cells"
same,induction of apoptosis,OPM2 cells [2],even more enhanced apoptosis compared to the combination of two drugs together
same,tumour burden (M-proteins) on treatment,Vk*MYC myeloma cells; SPEP,reduce tumour burden (M-proteins)
same,median survival,Vk*MYC myeloma cells; vehicle 196.5 days,243 days
same,relative sensitivity of the cell lines,[3]; U266 express MYCN instead of c-MYC,OPM2 cells were the most sensitive and U266 was the least sensitive
same,induction of apoptosis in multiple myeloma cell lines,[3]; six cell lines,induced dose-dependent apoptosis in five of the six treated cells
same,BRD4 and RNA Pol II at MYC locus,BRD4,significant reduction in BRD4 and RNA Pol II
same,displacement of BRD4 from chromatin,BRD4,robust displace ment of BRD4
same,GI50,OPM2 cells [4],≤ 100 nM
same,PD-L1 expression in tumour cells (indicator for BET inhibition),[5]; harvested LN,significantly reduced
same,pAKT (PI3K substrate),[5]; lysates from harvested LN,suppressed
